Active and inactive are the calls of the source. How the calls were made is not given here.
System: rodent lifetime carcinogenesis bioassay, tumor incidence TD50
Assay: carcinogenic potency in animals, long-term in vivo studies, CPDB compilation (AID 1745844)

Cc1ccc2c(c1N)C(=O)c1ccccc1C2=O
TD50 (mouse, strain B6C3F1, females, in feed, site: liver, lesion: hepatocellular adenoma + hepatocellular carcinoma + neoplastic nodule, dosed 70 weeks, study length 97 weeks): 174 mg/kg/day | TD50 (mouse, strain B6C3F1, females, in feed, site: liver, lesion: hepatocellular carcinoma + neoplastic nodule, dosed 70 weeks, study length 97 weeks): 174 mg/kg/day | carcinogen call (mouse, strain B6C3F1, males, in feed, site: any site (literature study), lesion: several types, types named in the paper, dosed 70 weeks, study length 97 weeks): negative (inactive) | TD50 (rat, strain Fischer 344, females, in feed, site: liver, lesion: hepatocellular adenoma + hepatocellular carcinoma + neoplastic nodule, dosed 78 weeks, study length 104 weeks): 115 mg/kg/day | TD50 (rat, strain Fischer 344, females, in feed, site: liver, lesion: hepatocellular carcinoma + neoplastic nodule, dosed 78 weeks, study length 104 weeks): 115 mg/kg/day | TD50 (rat, strain Fischer 344, females, in feed, site: liver, lesion: hepatocellular carcinoma, dosed 78 weeks, study length 104 weeks): 182 mg/kg/day | TD50 (rat, strain Fischer 344, males, in feed, site: any site (literature study), lesion: several types, types named in the paper, dosed 78 weeks, study length 104 weeks): 64.4 mg/kg/day | TD50 (rat, strain Fischer 344, males, in feed, site: kidney + liver, lesion: adenocarcinoma, NOS + tubular-cell adenoma + tubular-cell adenocarcinoma + hepatocellular carcinoma + neoplastic nodule, dosed 78 weeks, study length 104 weeks): 34.1 mg/kg/day | TD50 (rat, strain Fischer 344, males, in feed, site: kidney, lesion: adenocarcinoma, NOS + tubular-cell adenocarcinoma, dosed 78 weeks, study length 104 weeks): 441 mg/kg/day | TD50 (rat, strain Fischer 344, males, in feed, site: kidney, lesion: adenocarcinoma, NOS + tubular-cell adenoma + tubular-cell adenocarcinoma, dosed 78 weeks, study length 104 weeks): 131 mg/kg/day | TD50 (rat, strain Fischer 344, males, in feed, site: kidney, lesion: tubular-cell adenoma, dosed 78 weeks, study length 104 weeks): 196 mg/kg/day | TD50 (rat, strain Fischer 344, males, in feed, site: liver, lesion: hepatocellular adenoma + hepatocellular carcinoma + neoplastic nodule, dosed 78 weeks, study length 104 weeks): 39.9 mg/kg/day | TD50 (rat, strain Fischer 344, males, in feed, site: liver, lesion: hepatocellular carcinoma + neoplastic nodule, dosed 78 weeks, study length 104 weeks): 39.9 mg/kg/day | TD50 (rat, strain Fischer 344, males, in feed, site: liver, lesion: hepatocellular carcinoma, dosed 78 weeks, study length 104 weeks): 150 mg/kg/day | TD50 (rat, strain Fischer 344, males, in feed, site: pituitary gland, lesion: adenoma, NOS + chromophobe adenoma, dosed 78 weeks, study length 104 weeks): 136 mg/kg/day | TD50 (rat, strain Fischer 344, males, in feed, site: thyroid gland, lesion: c-cell adenoma + c-cell carcinoma, dosed 78 weeks, study length 104 weeks): 283 mg/kg/day

CN(N=O)C(=O)c1c(N(C)N=O)ncn1C
TD50 (rat, strain BD IX, both sexes, by gavage, site: forestomach, lesion: squamous-cell carcinoma, dosed 41 weeks, study length 52 weeks): 0.183 mg/kg/day

c1ccc(Nc2ccc3ccccc3c2)cc1
carcinogen call (hamster, strain Syrian Golden, females, by gavage, site: any site (literature study), lesion: several types, types named in the paper, dosed 84 weeks, study length 84 weeks): negative (inactive) | carcinogen call (hamster, strain Syrian Golden, males, by gavage, site: any site (literature study), lesion: several types, types named in the paper, dosed 84 weeks, study length 84 weeks): negative (inactive) | TD50 (mouse, strain B6AKF1, females, oral dosing, site: any site (literature study), lesion: several types, types named in the paper, dosed 76 weeks, study length 76 weeks): 1080 mg/kg/day | TD50 (mouse, strain B6AKF1, males, oral dosing, site: any site (literature study), lesion: several types, types named in the paper, dosed 76 weeks, study length 76 weeks): 186 mg/kg/day | TD50 (mouse, strain B6AKF1, males, oral dosing, site: liver, lesion: hepatoma, dosed 76 weeks, study length 76 weeks): 460 mg/kg/day | TD50 (mouse, strain B6AKF1, males, oral dosing, site: lung, lesion: adenoma, dosed 76 weeks, study length 76 weeks): 431 mg/kg/day | TD50 (mouse, strain B6C3F1, females, in feed, site: kidney, lesion: tubular-cell adenoma + tubular-cell adenocarcinoma, dosed 103 weeks, study length 104 weeks): 10800 mg/kg/day | TD50 (mouse, strain B6C3F1, females, in feed, site: liver, lesion: hepatocellular adenoma + hepatocellular carcinoma + neoplastic nodule, dosed 103 weeks, study length 104 weeks): 5630 mg/kg/day | TD50 (mouse, strain B6C3F1, females, oral dosing, site: any site (literature study), lesion: several types, types named in the paper, dosed 76 weeks, study length 76 weeks): 1080 mg/kg/day | TD50 (mouse, strain B6C3F1, females, oral dosing, site: liver, lesion: hepatoma, dosed 76 weeks, study length 76 weeks): 1080 mg/kg/day | TD50 (mouse, strain B6C3F1, males, in feed, site: any site (literature study), lesion: several types, types named in the paper, dosed 103 weeks, study length 104 weeks): 4510 mg/kg/day | TD50 (mouse, strain B6C3F1, males, in feed, site: liver, lesion: hepatocellular adenoma + hepatocellular carcinoma + neoplastic nodule, dosed 103 weeks, study length 104 weeks): 1350 mg/kg/day | TD50 (mouse, strain B6C3F1, males, in feed, site: subcutaneous tissue, lesion: fibrosarcoma + neurofibrosarcoma + sarcoma, NOS, dosed 103 weeks, study length 104 weeks): 2380 mg/kg/day (inactive) | TD50 (mouse, strain B6C3F1, males, oral dosing, site: any site (literature study), lesion: several types, types named in the paper, dosed 76 weeks, study length 76 weeks): 108 mg/kg/day | TD50 (mouse, strain B6C3F1, males, oral dosing, site: liver, lesion: hepatoma, dosed 76 weeks, study length 76 weeks): 165 mg/kg/day | carcinogen call (rat, strain Fischer 344, females, in feed, site: any site (literature study), lesion: several types, types named in the paper, dosed 103 weeks, study length 104 weeks): negative (inactive) | carcinogen call (rat, strain Fischer 344, males, in feed, site: any site (literature study), lesion: several types, types named in the paper, dosed 103 weeks, study length 104 weeks): negative (inactive) | carcinogen call (rat, strain Sprague-Dawley, females, by gavage, site: any site (literature study), lesion: several types, types named in the paper, dosed 136 weeks, study length 136 weeks): negative (inactive) | carcinogen call (rat, strain Sprague-Dawley, males, by gavage, site: any site (literature study), lesion: several types, types named in the paper, dosed 160 weeks, study length 160 weeks): negative (inactive)

Source: PubChem BioAssay AID1745844 (Carcinogenic Potency Database (CPDB), 2022)
